# According to US20260224577A1, “METHODS OF TREATING HEART FAILURE WITH VIBEGRON” (SUMITOMO PHARMA CO., LTD., priority 2021, published 2026):
# Test system: mice with induced myocardial infarction
# Assay: Post-MI chronic heart failure in mice, echocardiography
# Assay type: in vivo
# Source text: The purpose of this experiment is to study the effect of vibegron on structural remodeling (e.g., hypertrophy and/or fibrosis) and functional remodeling (e.g, ventricular function) in mice with chronic HF after a myocardial infarction (MI). The specific aims of these studies will be to determine the dose response treatment effects on cardiac remodeling by measuring parameters of cardiac structure and function using non-invasive, invasive, morphological, and histological assessments of mice after MI.
# Myocardial infarction in the mouse is a commonly used experimental model for chronic ischemic heart failure. Due to complete ligation of the left anterior descending coronary artery, there is a large left ventricular infarct that produces adverse LV remodeling and significant dysfunction within 2 weeks post-MI. There also is significant fibrosis in this model and it is robust and reproducible with low mortality due to the surgical procedure. This model has been used for over 2 decades (see, e.g., Gao, E. et al., Circulation Research, 2010; 107: 1445-1453) and has been used to test potential novel HF therapeutics (Schumacher, S. et al. Science Translational Medicine, 2015; 7: 277).
# Myocardial infarction was induced in 10-12 week C57B/6 wild-type mice and after 2 weeks echo cardiograms were used to assess the MI severity in each mouse. Mice were randomized for treatment based on similarity and severity of the induced infarct. The mice were started with either vibegron or vehicle (1-3 doses) administered by continuous infusion using 2 week minipumps (Azlet Corp.) that were filled with the appropriate dose and implanted subcutaneously on the back of each animal in the region of the scapula. The minipumps were replaced with new minipumps in the same location at the 2 week time point and dosed for 4 weeks in total. Cardiac function was assessed by echocardiography (Echo) at 0, 2, 4, and 6 weeks. Some mice were subjected to terminal catheterization to measure hemodynamic pressures and adrenergic responsiveness.
# Sham surgery groups treated with vehicle and highest dose of vibegron were included as controls. One group of post-MI mice treated with vehicle was also included in the study as a control. Two groupings of the 6 conditions were tested to allow for multiple replicates. There were 7 to 8 mice per condition in each group. The 2 groups studied were staggered by 3-4 weeks.
# At this point, 6 experimental conditions (A-F below)×2 groups (staggered for reproducibility) were tested. Vibegron was provided in a form dissolved and delivered via an osmotic minipump placed under the skin of the mouse. The vehicle was used for negative control animals. Three (3) doses of vibegron (low, medium and high) were tested.
# • A. Sham—vehicle • B. Sham—vibegron (high dose) • C. MI—vehicle • D. MI—vibegron—low dose • E. MI—vibegron—medium dose • F. MI—vibegron—high dose Group 2 (7 or 8 Mice Per Group) Repeated 3-4 Weeks after Group 1 • A. Sham—vehicle • B. Sham—vibegron (high dose) • C. MI—vehicle • D. MI—vibegron—low dose • E. MI—vibegron—medium dose • F. MI—vibegron—high dose
# • 1. Day 0 (after 1-2 weeks acclimation)—pre-surgery Echo • 2. Perform LAD Ligation (MI) or Sham procedure • 3. Day 14—Echo and randomly assign groups • 4. Day 14—begin administration of vehicle and drug for 4 weeks • 5. Day 28—Echo (operator blinded to groups)—change pumps for another 2 week dosing • 6. Day 42—Echo (operator blinded to groups) • 7. Day 42—Some were used for hemodynamics and ISO dose response and all animals sacrificed. Some were used for histology and some for RNA/Protein analysis. Blood was also collected at the time of sacrifice to determine serum concentrations.
# Surgical Methods: As described in Gao, E. et al., Circulation Research, 2010; 107: 1445-1453 and Schumacher, S. et al. Science Translational Medicine, 2015; 7: 277, mice were anesthetized and complete ligation of the LAD was performed through a partial thoracotomy.
# [1] = MI mice, high dose (10 mg/kg), Baseline (pre-surgery)
# [2] = MI mice, high dose (10 mg/kg), Week 2 (before start of dosing)
# [3] = MI mice, high dose (10 mg/kg), Week 4 (2 weeks after dosing)
# [4] = MI mice, high dose (10 mg/kg), Week 6 (4 weeks of treatment)
# [5] = MI mice, low dose (1 mg/kg), Baseline (pre-surgery)
# [6] = MI mice, low dose (1 mg/kg), Week 2 (before start of dosing)
# [7] = MI mice, low dose (1 mg/kg), Week 4 (2 weeks after dosing)
# [8] = MI mice, low dose (1 mg/kg), Week 6 (4 weeks of treatment)
# [9] = MI mice, medium dose (3 mg/kg), Baseline (pre-surgery)
# [10] = MI mice, medium dose (3 mg/kg), Week 2 (before start of dosing)
# [11] = MI mice, medium dose (3 mg/kg), Week 4 (2 weeks after dosing)
# [12] = MI mice, medium dose (3 mg/kg), Week 6 (4 weeks of treatment)
# [13] = sham mice, high dose (10 mg/kg), Baseline (pre-surgery)
# [14] = sham mice, high dose (10 mg/kg), Week 2 (before start of dosing)
# [15] = sham mice, high dose (10 mg/kg), Week 4 (2 weeks after dosing)
# [16] = sham mice, high dose (10 mg/kg), Week 6 (4 weeks of treatment)
compound,measurement,setting,value
"O=C(Nc1ccc(C[C@@H]2CC[C@H]([C@H](O)c3ccccc3)N2)cc1)[C@@H]1CCc2nccc(=O)n21 [Vibegron, (6S)—N-[4-[[(2S,5R)-5-[(R)-hydroxy(phenyl)methyl]pyrrolidin-2-yl]methyl]phenyl]-4-oxo-7,8-dihydro-6H-pyrrolo[1,2-a]pyrimidine-6-carboxamide]",Average % Ejection Fraction,[1],62.06%
same,Average % Fractional Shortening,[1],32.99%
same,Cardiac Output,[1],20.56 mL/min
same,Stroke Volume,[1],43.30 µL
same,Average % Ejection Fraction,[2],38.39%
same,Average % Fractional Shortening,[2],18.91%
same,Cardiac Output,[2],18.93 mL/min
same,Stroke Volume,[2],40.79 µL
same,Average % Ejection Fraction,[3],42.59%
same,Average % Fractional Shortening,[3],21.61%
same,Cardiac Output,[3],23.29 mL/min
same,Cardiac Output % Improvement Relative to Vehicle,[3],37.40%
same,Stroke Volume,[3],46.83 µL
same,Stroke Volume % Improvement Relative to Vehicle,[3],40.84%
same,Average % Ejection Fraction,[4],42.68%
same,Average % Fractional Shortening,[4],21.76%
same,Cardiac Output,[4],25.09 mL/min
same,Cardiac Output % Improvement Relative to Vehicle,[4],61.35%
same,Stroke Volume,[4],47.22 µL
same,Stroke Volume % Improvement Relative to Vehicle,[4],57.87%
same,Average % Ejection Fraction,[5],59.50%
same,Average % Fractional Shortening,[5],31.22%
same,Cardiac Output,[5],20.00 mL/min
same,Stroke Volume,[5],42.74 µL
same,Average % Ejection Fraction,[6],37.52%
same,Average % Fractional Shortening,[6],18.44%
same,Cardiac Output,[6],18.06 mL/min
same,Stroke Volume,[6],39.30 µL
same,Average % Ejection Fraction,[7],29.77%
same,Average % Fractional Shortening,[7],14.29%
same,Cardiac Output,[7],15.45 mL/min
same,Stroke Volume,[7],32.76 µL
same,Average % Ejection Fraction,[8],31.64%
same,Average % Fractional Shortening,[8],15.21%
same,Cardiac Output,[8],19.19 mL/min
same,Cardiac Output % Improvement Relative to Vehicle,[8],23.40%
same,Stroke Volume,[8],37.54 µL
same,Stroke Volume % Improvement Relative to Vehicle,[8],25.51%
same,Average % Ejection Fraction,[9],58.11%
same,Average % Fractional Shortening,[9],30.07%
same,Cardiac Output,[9],21.05 mL/min
same,Stroke Volume,[9],44.72 µL
same,Average % Ejection Fraction,[10],37.18%
same,Average % Fractional Shortening,[10],18.14%
same,Cardiac Output,[10],18.94 mL/min
same,Stroke Volume,[10],40.37 µL
same,Average % Ejection Fraction,[11],35.95%
same,Average % Fractional Shortening,[11],17.57%
same,Cardiac Output,[11],19.51 mL/min
same,Cardiac Output % Improvement Relative to Vehicle,[11],15.10%
same,Stroke Volume,[11],39.00 µL
same,Stroke Volume % Improvement Relative to Vehicle,[11],17.29%
same,Average % Ejection Fraction,[12],35.55%
same,Average % Fractional Shortening,[12],17.36%
same,Cardiac Output,[12],20.90 mL/min
same,Cardiac Output % Improvement Relative to Vehicle,[12],34.41%
same,Stroke Volume,[12],41.69 µL
same,Stroke Volume % Improvement Relative to Vehicle,[12],39.38%
same,Onset of action,"after initiation of treatment, as shown in the examples",≤ 2 weeks
same,Adverse effects in healthy hearts (echocardiographic function versus baseline),"sham mice, high dose",no adverse effects
same,Average % Ejection Fraction,[13],59.04%
same,Average % Fractional Shortening,[13],30.87%
same,Cardiac Output,[13],22.09 mL/min
same,Stroke Volume,[13],42.25 µL
same,Average % Ejection Fraction,[14],62.36%
same,Average % Fractional Shortening,[14],33.26%
same,Cardiac Output,[14],23.72 mL/min
same,Stroke Volume,[14],45.57 µL
same,Average % Ejection Fraction,[15],61.08%
same,Average % Fractional Shortening,[15],32.32%
same,Cardiac Output,[15],22.53 mL/min
same,Stroke Volume,[15],44.44 µL
same,Average % Ejection Fraction,[16],61.18%
same,Average % Fractional Shortening,[16],32.45%
same,Cardiac Output,[16],23.63 mL/min
same,Stroke Volume,[16],45.97 µL
